Data: article PMC9646970 (Poultry Science, 2022)
Where two headings read alike, the source gives them in different places.

Assays:
[1] = assay type: in vivo, broiler chickens; conditions: single ENR administration (i.v. 10 mg/kg or p.o. 20 mg/kg) with or without CsA or AC
[2] = assay type: in vivo, broiler chickens
[3] = Population pharmacokinetic analysis; assay type: in vivo, broiler chickens; conditions: for AUC: geometric mean
[4] = cited from earlier work
[5] = population fixed effect, p.o. administration
[6] = oral administration, same dose (20 mg/kg), ref Xiao et al., 2018

CCN1CCN(c2cc3c(cc2F)c(=O)c(C(=O)O)cn3C2CC2)CC1 [Enrofloxacin, enrofloxacin]
adverse effects [1]: No adverse effects were observed | AUC ([2]; Ross hybrid (Cornish × Plymouth Rock), plasma, po, 20 mg/kg, AUC, enrofloxacin in plasma, enrofloxacin p.o. 20 mg/kg + cyclosporine A p.o. 50 mg/kg, geometric mean (min–max)): 40.4 µg·h/mL | Cmax ([2]; Ross hybrid (Cornish × Plymouth Rock), plasma, po, 20 mg/kg, Cmax, enrofloxacin in plasma, enrofloxacin p.o. 20 mg/kg + cyclosporine A p.o. 50 mg/kg, geometric mean (min–max)): 5.62 µg/mL | Tmax ([2]; Ross hybrid (Cornish × Plymouth Rock), plasma, po, 20 mg/kg, Tmax, enrofloxacin in plasma, enrofloxacin p.o. 20 mg/kg + cyclosporine A p.o. 50 mg/kg, geometric mean (min–max)): 1.35 h | increase of AUC with CsA co-administration ([2]; enrofloxacin p.o. 20 mg/kg + CsA p.o. versus enrofloxacin p.o. alone): approx. 20% | AUC ([3]; Ross hybrid (Cornish × Plymouth Rock), plasma, iv, 10 mg/kg, AUCi.v. – activated charcoal, enrofloxacin i.v. 10 mg/kg + activated charcoal p.o. 1 g/kg): 13.3 µg·h/mL | AUC ([3]; Ross hybrid (Cornish × Plymouth Rock), plasma, iv, 10 mg/kg, AUCi.v. – cyclosporine A, enrofloxacin i.v. 10 mg/kg + cyclosporine A p.o. 50 mg/kg): 16.2 µg·h/mL | bioavailability ([3]; Ross hybrid (Cornish × Plymouth Rock), plasma, po, 20 mg/kg): 100% | AUC ([3]; Ross hybrid (Cornish × Plymouth Rock), plasma, po, 20 mg/kg, AUCp.o. – control, enrofloxacin p.o. 20 mg/kg alone): 31.2 µg·h/mL | AUC ([3]; Ross hybrid (Cornish × Plymouth Rock), plasma, po, 20 mg/kg, AUCp.o. – cyclosporine A, enrofloxacin p.o. 20 mg/kg + cyclosporine A p.o. 50 mg/kg): 37.4 µg·h/mL | lag time (time to pass the crop and the stomach to reach the absorption site) ([3]; p.o. administration, on average): 3.24 min | βCl BW (covariate effect of body weight on clearance) ([3]; population fixed effect, log-normalized BW): 0.77 | tvTlag (typical value of lag time) [3, 5]: 0.054 h | tvka (typical value of absorption rate constant) [3, 5]: 1.26 h⁻¹ | oral bioavailability change with verapamil co-administration ([4]; co-administered with the P-gp inhibitor verapamil, ref Guo et al., 2013): nearly doubled | AUC ([4]; i.v. administration at 10 mg/kg, ref Atef et al., 2020): 15.2 ± 1.08 µg·h/mL | AUC0-24h [4, 6]: 30.07 ± 4.64 µg/h/mL | Cmax [4, 6]: 2.86 ± 0.52 µg/mL
